In brackets after ≈: the same amount, converted by molar mass. Like-named read-outs stand apart in the source and are kept apart here.
How the values were obtained:
[1] = tested on: Aspergillus fumigatus 231; experiment: Antifungal microdilution broth, AF; assay type: cell-based; details: read-out: MIC AF
Candida tropicalis 156 = experiment: Antifungal microdilution broth, CT; assay type: cell-based; details: read-out: MIC CT
[2] = tested on: Staphylococcus aureus H 5996/08 methicillin resistant; experiment: microbe, parasite or virus in culture; assay type: cell-based; details: Staphylococcus aureus, MRSA, read-out: MIC MRSA
[3] = tested on: Mycobacterium tuberculosis H37Rv CNCTC My 331/88 (ATCC 27294); experiment: Antimycobacterial microdilution MABA, M. tuberculosis; assay type: cell-based; details: for MIC: Mycobacterium tuberculosis, read-out: Mtb H37Rv ATCC 27294 MIC, Middlebrook 7H9 with OADC growth supplement, pH = 6.6, MABA
[4] = tested on: M. kansasii CNCTC My 235/80 (ATCC 12478); experiment: Antimycobacterial microdilution MABA, M. kansasii; assay type: cell-based, Mycobacterium kansasii; details: for MIC: Mycobacterium kansasii, ATCC12478, pH 6.6, read-out: M. kans. ATCC 12478 MIC, Middlebrook 7H9 with OADC, pH 6.6, MABA
Trichosporon asahii 1188 = experiment: Antifungal microdilution broth, TA; assay type: cell-based; details: read-out: MIC TA
[5] = tested on: Lichtheimia corymbifera 272; experiment: Antifungal microdilution broth, LC; assay type: cell-based; details: read-out: MIC LC
[6] = tested on: Enterococcus sp. J 14365/08; experiment: Antibacterial microdilution broth, EF; assay type: cell-based; details: Enterococcus, read-out: MIC EF
[7] = tested on: Staphylococcus epidermidis H 6966/08; experiment: Antibacterial microdilution broth, SE; assay type: cell-based; details: Staphylococcus epidermidis, read-out: MIC SE
Candida krusei E28 = experiment: Antifungal microdilution broth, CK; assay type: cell-based; details: Pichia kudriavzevii, read-out: MIC CK
Candida glabrata 20/I = experiment: Antifungal microdilution broth, CG; assay type: cell-based; details: Nakaseomyces glabratus, 20/I, read-out: MIC CG
[8] = tested on: Candida albicans ATCC 44859; experiment: Antifungal microdilution broth, CA; assay type: cell-based; details: Candida albicans, read-out: MIC CA
[9] = tested on: Mycobacterium smegmatis CCM 4622 (ATCC 607); experiment: Antimycobacterial microdilution, M. smegmatis; assay type: cell-based; details: Mycolicibacterium smegmatis, read-out: M. smeg. ATCC 607 MIC
[10] = tested on: Pseudomonas aeruginosa CCM 1961; experiment: Antibacterial microdilution broth, PA; assay type: cell-based; details: Pseudomonas aeruginosa, read-out: MIC PA
[11] = tested on: Staphylococcus aureus CCM 4516/08; experiment: Antibacterial microdilution broth, SA; assay type: cell-based; details: Staphylococcus aureus
[12] = tested on: Escherichia coli CCM 4517; experiment: Antibacterial microdilution broth, EC; assay type: cell-based; details: Escherichia coli, read-out: MIC EC
[13] = tested on: M. avium ssp. avium CNCTC My 80/72 (ATCC 15769); experiment: Antimycobacterial microdilution MABA, M. avium; assay type: cell-based, Mycobacterium avium; details: for M. avium ATCC 15769 MIC: Middlebrook 7H9 with OADC, pH 6.6, MABA; for MIC: Mycobacterium avium, ATCC15769, pH 6.6, read-out: M. avium ATCC 15769 MIC
[14] = tested on: Trichophyton interdigitale 445; experiment: Antifungal microdilution broth, TI; assay type: cell-based; details: read-out: MIC TI
[15] = Aspergillus fumigatus, 231, 24 h
[16] = Aspergillus fumigatus, 231, 48 h
[17] = Trichosporon asahii, 1188, 24 h
[18] = Trichosporon asahii, 1188, 48 h
[19] = Lichtheimia corymbifera, 272, 24 h
[20] = Lichtheimia corymbifera, 272, 48 h
[21] = CCM4516, 24 h, read-out: MIC SA, 24 h
[22] = CCM4516, 48 h, read-out: MIC SA, 48 h
[23] = Trichophyton interdigitale, 445, 72 h
[24] = Trichophyton interdigitale, 445, 120 h

| Compound | MIC [1, 15] [µM] | MIC [1, 16] [µM] | MIC (Candida tropicalis 156; Candida tropicalis, 156, 24 h) [µM] | MIC (Candida tropicalis 156; Candida tropicalis, 156, 48 h) [µM] | MIC ([2]; 24 h) [µM] | MIC ([2]; 48 h) [µM] | MIC [3] [µg/mL] | MIC [4] [µg/mL] | MIC (Trichosporon asahii 1188; [17]) [µM] | MIC (Trichosporon asahii 1188; [18]) [µM] | MIC [5, 19] [µM] | MIC [5, 20] [µM] | MIC ([6]; SP.J14365/08, 24 h) [µM] | MIC ([6]; SP.J14365/08, 48 h) [µM] | MIC ([7]; H6966/08, 24 h) [µM] | MIC ([7]; H6966/08, 48 h) [µM] | MIC (Candida krusei E28; E28, 24 h) [µM] | MIC (Candida krusei E28; E28, 48 h) [µM] | MIC (Candida glabrata 20/I; 24 h) [µM] | MIC (Candida glabrata 20/I; 48 h) [µM] | further results |
| --- | --- | --- | --- | --- | --- | --- | --- | --- | --- | --- | --- | --- | --- | --- | --- | --- | --- | --- | --- | --- | --- |
| O=C(Nc1cnccn1)c1cccc(Cl)c1 [Compound 1k] | > 125 | > 125 | > 125 | > 125 | > 125 | > 125 | 50 (≈ 214 µM) | 50 (≈ 214 µM) | > 125 | > 125 | > 125 | > 125 | > 125 | > 125 | > 125 | > 125 | > 125 | > 125 | > 125 | > 125 | melting point: 147.2 to 149.4 °C; MIC ([8]; ATCC44859, 24 h): > 125 µM; MIC ([8]; ATCC44859, 48 h): > 125 µM; MIC [9]: ≥ 500 µg/mL; MIC ([10]; CCM1961, 72 h): > 125 µM; MIC ([10]; CCM1961, 120 h): > 125 µM; MIC [11, 21]: > 125 µM; MIC [11, 22]: > 125 µM; MIC ([12]; CCM4517, 24 h): > 125 µM; MIC ([12]; CCM4517, 48 h): > 125 µM; M. avium ATCC 15769 MIC [13]: >100 µg/mL; MIC [13]: > 100 µg/mL; MIC [14, 23]: > 125 µM; MIC [14, 24]: > 125 µM |
| O=C(c1ccc(Cl)cc1)N(C(=O)c1ccc(Cl)cc1)c1cnccn1 [Compound 1l-SP] | > 125 | > 125 | > 125 | > 125 | > 125 | > 125 | 50 (≈ 134 µM) | > 100 | > 125 | > 125 | > 125 | > 125 | > 125 | > 125 | > 125 | > 125 | > 125 | > 125 | > 125 | > 125 | M. kans. ATCC 12478 MIC ([4]; Middlebrook 7H9 with OADC, pH 6.6, MABA): >100 µg/mL; melting point: 153.1 to 153.8 °C; MIC ([8]; ATCC44859, 24 h): > 125 µM; MIC ([8]; ATCC44859, 48 h): > 125 µM; MIC [9]: ≥ 500 µg/mL; MIC ([10]; CCM1961, 72 h): > 125 µM; MIC ([10]; CCM1961, 120 h): > 125 µM; MIC [11, 21]: > 125 µM; MIC [11, 22]: > 125 µM; MIC ([12]; CCM4517, 24 h): > 125 µM; MIC ([12]; CCM4517, 48 h): > 125 µM; M. avium ATCC 15769 MIC [13]: >100 µg/mL; MIC [13]: > 100 µg/mL; MIC [14, 23]: > 125 µM; MIC [14, 24]: > 125 µM |
| O=C(Nc1cnccn1)c1ccc(Cl)cc1 [Compound 1l] | > 125 | > 125 | > 125 | > 125 | > 125 | > 125 | 50 (≈ 214 µM) | 50 (≈ 214 µM) | > 125 | > 125 | > 125 | > 125 | > 125 | > 125 | > 125 | > 125 | > 125 | > 125 | > 125 | > 125 | melting point: 182.6 to 184.3 °C; MIC ([8]; ATCC44859, 24 h): > 125 µM; MIC ([8]; ATCC44859, 48 h): > 125 µM; MIC [9]: ≥ 500 µg/mL; MIC ([10]; CCM1961, 72 h): > 125 µM; MIC ([10]; CCM1961, 120 h): > 125 µM; MIC [11, 21]: > 125 µM; MIC [11, 22]: > 125 µM; MIC ([12]; CCM4517, 24 h): > 125 µM; MIC ([12]; CCM4517, 48 h): > 125 µM; M. avium ATCC 15769 MIC [13]: >100 µg/mL; MIC [13]: > 100 µg/mL; MIC [14, 23]: > 125 µM; MIC [14, 24]: > 125 µM |
| O=C(Nc1cnc(Cl)cn1)c1ccccc1 [Compound 2a] | > 500 | > 500 | > 500 | > 500 | 250 (≈ 58.4 µg/mL) | 250 (≈ 58.4 µg/mL) | > 100 | > 100 | > 500 | > 500 | > 500 | > 500 | > 500 | > 500 | 500 (≈ 117 µg/mL) | 500 (≈ 117 µg/mL) | > 500 | > 500 | > 500 | > 500 | Mtb H37Rv ATCC 27294 MIC ([3]; Middlebrook 7H9 with OADC growth supplement, pH = 6.6, MABA): >100 µg/mL; melting point: 162.5 to 163.5 °C; MIC ([8]; ATCC44859, 24 h): > 500 µM; MIC ([8]; ATCC44859, 48 h): > 500 µM; MIC [9]: ≥ 500 µg/mL; MIC ([10]; CCM1961, 72 h): > 500 µM; MIC ([10]; CCM1961, 120 h): > 500 µM; MIC [11, 21]: 250 µM (≈ 58.4 µg/mL); MIC [11, 22]: 250 µM (≈ 58.4 µg/mL); MIC ([12]; CCM4517, 24 h): > 500 µM; MIC ([12]; CCM4517, 48 h): > 500 µM; MIC [13]: > 100 µg/mL; MIC [14, 23]: > 500 µM; MIC [14, 24]: > 500 µM |
